Laboratory results: paper PMC8596843, “Platinum Cyclooctadiene Complexes with Activity against Gram‐positive Bacteria” (Chemmedchem, 2021)
Converted amounts (≈) assume the structure as drawn. Where two headings read alike, the source gives them in different places.

Columns and labels:
[1] = system: S. aureus ATCC 43300 MRSA; assay: MIC in the presence of human serum (serum reversal); assay type: cell-based, Staphylococcus aureus; conditions: Staphylococcus aureus, read-out: MIC in the presence of human serum
From the text: (§1) To obtain some initial insight into the apparent disparity between in vitro and in vivo results, we repeated the MIC experiments against four selected Gram‐positive strains in the presence of 10 % or 50 % human serum (Table S3). Pt1 and Pt2 maintained some antibacterial activity against B. subtilis in the presence of 10 % serum, but a complete loss of activity was observed against MRSA and GISA (50 % serum), and VRE (10 % serum). […] Systemic administration is therefore unlikely to be a suitable administration route for this class of compounds unless an alternative formulation that can prevent serum binding (e. g. by lipid or nanoparticle encapsulation) can be found. […] Further in vivo studies should therefore focus on more suitable disease models. […]
(§2) Antibacterial minimum inhibitory concentration (MIC) assay
(§3) concentration. (in-house screening)
(§4) Bacto Laboratories 212322) at 37 °C overnight.
(§5) The resultant mid-log phase cultures were diluted
(§6) Gram-negative and Gram-positive bacteria, respectively.
(§7) final concentration range of 0.8 – 100 µM.
(§8) inhibitors as positive control. […]

S. aureus NRS 17 GISA = assay: as above; assay type: cell-based, Staphylococcus aureus; conditions: Staphylococcus aureus, NRS17, read-out: MIC in the presence of human serum
From the text: as §1, §2, §3, §4, §5, §6, §7, §8

[2] = system: E. faecium ATCC 51559 MDR, VRE; assay: as above; assay type: cell-based, Enterococcus faecium; conditions: Enterococcus faecium, read-out: MIC in the presence of human serum
From the text: as §1, §2, §3, §4, §5, §6, §7, §8

[3] = system: Staphylococcus aureus ATCC 43300 (MRSA); assay: microbe, parasite or virus in culture; assay type: cell-based; conditions: Staphylococcus aureus
Procedure: All compounds submitted to CO‐ADD are initially screened against five bacterial strains (Staphylococcus aureus (MRSA), E. coli, Klebsiella pneumoniae, Pseudomonas aeruginosa, Acinetobacter baumannii) and two fungal strains (Candida albicans, Cryptococcus neoformans) at a single concentration (32 μg/mL or 20 μM) performed as a high‐throughput primary screening.[[11], [17a]] Any compounds that show significant growth inhibition against any of the tested strains at this step are then evaluated in a dose‐response assay against these same strains. […]
(§9) Smiles: C1C=CCCC(=CC1)C1=CCCC=CCC1.C[Pt]C.C[Pt]C […]
(§10) ATCC strains were sourced from the American Type Culture Collection and NRS strains from NARSA (Network on Antimicrobial Resistance in Staphylococcus aureus) via BEI Resources (www.beiresources.org), with clinical MSSA and MRSA isolates from Prof Graeme Nimmo, Queensland […]
(§11) Health Central Pathology. […]
as §2
(§12) Compound Assay Plate Preparation: Compounds were dissolved in DMSO at 10mM (CO-ADD screening) or 4 mM (follow up screening) and were plated in a 2-fold dose response from 20 to 0.156 µM or 200 to 0.006 µM respectively, with a maximum of 0.5% or 1% DMSO, final in the assay […]
(§13) plated in a 2-fold dose response from 200 to 0.006 µM, with a maximum of 1 % DMSO, final in the assay concentration. (in-house screening)
(§14) For all the bacterial assays, each strain was cultured in Cation-adjusted Mueller Hinton broth (CAMHB; Bacto Laboratories 212322) at 37 °C overnight. A sample of each culture was then diluted 40-fold in fresh CAMHB and incubated at 37 °C for 1.5–3 h. The resultant mid-log phase cultures were diluted with CAMHB (CFU mL−1 measured by OD600), then added to each well of the compound-containing plates (384-well non-binding surface (NBS) plates; Corning CLS3640), giving a cell density of 5 × 10^5 CFU mL−1 and a total volume of 50 μL. Plates were covered and incubated at 37 °C for 18 h without shaking. Inhibition of bacterial growth was determined measuring absorbance at 600 nm (OD600), using media only as negative control and bacteria without inhibitors as positive control. MIC values were determined as the lowest concentration at which the growth was inhibited at ≥80%. Colistin sulfate (Sigma C4461) and vancomycin HCl (Sigma 861987) were used as internal controls on each plate for Gram-negative and Gram-positive bacteria, respectively. […]

[4] = system: Staphylococcus aureus ATCC 25923, MSSA; assay: Antibacterial MIC assay, Gram-positive panel; assay type: cell-based; conditions: Staphylococcus aureus
From the text: (§15) Bis(dimethyl-η4)-((1Z,1'E,5Z,5'E)-(1,1'-bi(cyclooctadiene))diplatinum(II) (Pt14) Smiles: C1C=CCCC(=CC1)C1=CCCC=CCC1.C[Pt]C.C[Pt]C
(§16) InChIKey: PHIWIZAHOBWKFJ-HPCBIOCFSA-N
(§17) Link to selected data that was repeated to approve the identity of the compounds: https://dx.doi.org/10.14272/PHIWIZAHOBWKFJ-HPCBIOCFSA-N.1
as §10, §11, §2, §12, §13, §14

[5] = system: Staphylococcus aureus VRS 1, VRSA (VanA); assay: Antibacterial MIC assay, Gram-positive panel; assay type: cell-based; conditions: Staphylococcus aureus, VRSA
From the text: as §15, §16, §17, §10, §11, §2, §12, §13, §14

[6] = system: Enterococcus faecium Clinical Isolate, VRE (VanA); assay: Antibacterial MIC assay, Gram-positive panel; assay type: cell-based; conditions: Enterococcus faecium, VRE
Procedure: as §9, §10, §11, §2, §12, §13, §14

[7] = system: Enterococcus faecium ATCC 51559, MDR, VRE (VanA); assay: Antibacterial MIC assay, Gram-positive panel; assay type: cell-based; conditions: Enterococcus faecium
Procedure: as §9, §10, §11, §2, §12, §13, §14

[8] = system: Enterococcus faecalis ATCC 29212, control strain; assay: Antibacterial MIC assay, Gram-positive panel; assay type: cell-based; conditions: Enterococcus faecalis
Procedure: as §9, §10, §11, §2, §12, §13, §14

[9] = system: Staphylococcus aureus NRS 17, GISA; assay: Antibacterial MIC assay, Gram-positive panel; assay type: cell-based; conditions: Staphylococcus aureus
Procedure: as §9, §10, §11, §2, §12, §13, §14

[10] = system: Enterococcus faecalis Clinical Isolate, VRE (VanB); assay: Antibacterial MIC assay, Gram-positive panel; assay type: cell-based; conditions: Enterococcus faecalis, VRE
Procedure: as §9, §10, §11, §2, §12, §13, §14

[11] = system: Staphylococcus epidermidis ATCC 14990, type strain; assay: Antibacterial MIC assay, Gram-positive panel; assay type: cell-based; conditions: Staphylococcus epidermidis
Procedure: as §9, §10, §11, §2, §12, §13, §14

[12] = system: Bacillus subtilis ATCC 6051, type strain; assay: Antibacterial MIC assay, Gram-positive panel; assay type: cell-based; conditions: Bacillus subtilis
Procedure: as §9, §10, §11, §2, §12, §13, §14

[13] = system: Enterococcus faecium ATCC 35667, type strain; assay: Antibacterial MIC assay, Gram-positive panel; assay type: cell-based; conditions: Enterococcus faecium
Procedure: as §9, §10, §11, §2, §12, §13, §14

[14] = system: Staphylococcus epidermidis NRS 60, VISE; assay: Antibacterial MIC assay, Gram-positive panel; assay type: cell-based; conditions: Staphylococcus epidermidis
Procedure: as §9, §10, §11, §2, §12, §13, §14

[15] = system: B. subtilis ATCC 6051 type strain; assay: MIC in the presence of human serum (serum reversal); assay type: cell-based, Bacillus subtilis; conditions: Bacillus subtilis, ATCC6051, read-out: MIC in the presence of human serum
From the text: as §1, §2, §3, §4, §5, §6, §7, §8

human red blood cells = assay: Haemolysis assay; assay type: cell-based; conditions: concentration inducing 10 % haemolysis
Procedure: As part of the CO‐ADD screening, all compounds that show any activity against a microbial strain are evaluated for their cytotoxicity against human embryonic kidney cells (HEK‐293) and for haemolysis against human red blood cells. None of the compounds tested for cytotoxicity (Pt1‐9 and Pd1) caused any significant cell death up to concentrations of 100 μM. […] We have also observed higher IC50 values for the methylated complexes Pt3 and Pt4 against HeLa cells in previous work.[16]
as §5, §6, §7
inhibitors as positive control.
Tamoxifen (Sigma T5648) was used
as internal control on each plate.
in a Neubauer haemocytometer.
incubated for 1 h at 37 °C, without shaking.
HC10 and HC50 (concentration at which 10%
for top, bottom and slope using Prism 8. […]

Compound CN[C@H](CC(C)C)C(=O)N[C@H]1C(=O)N[C@@H](CC(N)=O)C(=O)N[C@H]2C(=O)N[C@H]3C(=O)N[C@H](C(=O)N[C@H](C(=O)O)c4cc(O)cc(O)c4-c4cc3ccc4O)[C@H](O)c3ccc(c(Cl)c3)Oc3cc2cc(c3O[C@@H]2O[C@H](CO)[C@@H](O)[C@H](O)[C@H]2O[C@H]2C[C@](C)(N)[C@H](O)[C@H](C)O2)Oc2ccc(cc2Cl)[C@H]1O [Vancomycin, reference compound] has an MIC [1] of 0.5 to 1 mg/L, an MIC (S. aureus NRS 17 GISA) of 8 mg/L and an MIC [2] of over 64 mg/L. It also gave an MIC ([3]; Table 2 panel, n=2) of 0.35 to 0.69 mg/L (≈ 0.242 to 0.476 µM), an MIC ([3]; Table S1, vancomycin control) of 0.5 to 1 mg/L (≈ 0.345 to 0.69 µM) and an MIC ([3]; read-out: MIC Sa, CO‐ADD screening, control antibiotic) of 1 mg/L (≈ 0.69 µM). For the same compound, the MIC ([4]; Table 2 panel, n=4) was 0.69 mg/L (≈ 0.476 µM), the MIC ([4]; Table S1, vancomycin control) was 1 mg/L (≈ 0.69 µM) and the MIC ([5]; Table 2 panel, n=4) was over 44.2 mg/L. The MIC ([5]; Table S1, vancomycin control) was over 64 mg/L, the MIC ([6]; Table 2 panel, n=4) was over 44.2 mg/L and the MIC ([6]; Table S1, vancomycin control) was over 64 mg/L. It also gave an MIC ([7]; Table 2 panel, n=2) of over 44.2 mg/L, an MIC ([7]; Table S1, vancomycin control) of over 64 mg/L and an MIC ([8]; ATCC29212, Table 2 panel, n=4) of 1.38 to 2.76 mg/L (≈ 0.952 to 1.9 µM). The MIC ([8]; ATCC29212, Table S1, vancomycin control) was 2 to 4 mg/L (≈ 1.38 to 2.76 µM), the MIC ([9]; NRS17, Table 2 panel, n=2) was 5.52 mg/L (≈ 3.81 µM) and the MIC ([9]; NRS17, Table S1, vancomycin control) was 8 mg/L (≈ 5.52 µM). For the same compound, the MIC ([10]; Table 2 panel, n=4) was over 44.2 mg/L, the MIC ([10]; Table S1, vancomycin control) was 64 mg/L (≈ 44.2 µM) and the MIC ([11]; ATCC14990, Table 2 panel, n=4) was 0.69 to 1.38 mg/L (≈ 0.476 to 0.952 µM). For the same compound, the MIC ([11]; ATCC14990, Table S1, vancomycin control) was 1 to 2 mg/L (≈ 0.69 to 1.38 µM), the MIC ([12]; ATCC6051, Table 2 panel, n=2) was 0.35 mg/L (≈ 0.242 µM) and the MIC ([12]; ATCC6051, Table S1, vancomycin control) was 0.5 mg/L (≈ 0.345 µM). It also gave an MIC ([13]; ATCC35667, Table 2 panel, n=4) of 0.35 mg/L (≈ 0.242 µM), an MIC ([13]; ATCC35667, Table S1, vancomycin control) of 0.5 mg/L (≈ 0.345 µM) and an MIC ([14]; NRS60, Table 2 panel, n=4) of 2.76 mg/L (≈ 1.9 µM). The MIC ([14]; NRS60, Table S1, vancomycin control) was 4 mg/L (≈ 2.76 µM) and the MIC [15] was 0.5 mg/L.

With CC[C@H](C)[C@H](NC(=O)CN)C(=O)NCC(=O)N[C@@H](C)C(=O)N[C@H](C(=O)N[C@@H](CC(C)C)C(=O)N[C@@H](CCCCN)C(=O)N[C@H](C(=O)N[C@@H](CC(C)C)C(=O)N[C@H](C(=O)N[C@H](C(=O)NCC(=O)N[C@@H](CC(C)C)C(=O)N1CCC[C@H]1C(=O)N[C@@H](C)C(=O)N[C@@H](CC(C)C)C(=O)N[C@H](C(=O)N[C@@H](CO)C(=O)N[C@@H](Cc1c[nH]c2ccccc12)C(=O)N[C@H](C(=O)N[C@@H](CCCCN)C(=O)N[C@@H](CCCNC(=N)N)C(=O)N[C@@H](CCCCN)C(=O)N[C@@H](CCCNC(=N)N)C(=O)N[C@@H](CCC(N)=O)C(=O)N[C@@H](CCC(N)=O)C(N)=O)[C@@H](C)CC)[C@@H](C)CC)[C@@H](C)O)[C@@H](C)O)C(C)C)C(C)C [Melittin, reference compound] the “Haemolysis HC10” value (human red blood cells) was 1.15 µM.
